In PMC11580889 (bioRxiv, 2025):

Target: PNKP (polynucleotide kinase 3'-phosphatase); purified recombinant PNKP (Homo sapiens, UniProt Q96T60)
Assay: intrinsic tryptophan fluorescence quenching titration
Type: binding

Work on `O=P(O)(O)OC[C@H]1O[C@@](CO)(OP(=O)(O)O)[C@@H](O)[C@@H]1O` [F2,6BP] yielded a Kd of 525 ± 25 nM.
